Measurements as given in patent US6054435A, “6-O-substituted macrolides having antibacterial activity” (priority 1999, dated 2000).
Values after ≈ are worked out from the molar mass of the structure shown.

Experiments:
Test in all cases: in vitro antibacterial activity (MIC), agar dilution
Assay type in all cases: cell-based
[1] = tested on: Staphylococcus aureus CMX 642A; conditions: organism code DD; BHI agar, 35-37° C., 20 to 24 hours; unit assumed
Procedure, shortened: (§1)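 MIC was taken by eye as the lowest drug level showing no growth, only haze or isolated colonies relative to the growth control. Organisms were replicator-spotted at 1:100 (Streptococcus 1:10) onto BHI agar plates containing serial compound dilutions, with a same-class reference antibiotic plate included.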

[2] = tested on: Micrococcus luteus ATCC 9341; conditions: organism code OO; BHI agar, 35-37° C., 20 to 24 hours; unit assumed
Procedure, shortened: (§2)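 BHI agar incorporation method; twelve compound concentrations. Streptococcus and other slow growers inoculated at 1:10, other strains at 1:100. Visual MIC read-out versus growth control.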

[3] = tested on: Staphylococcus aureus CMX 553; conditions: organism code FF; BHI agar, 35-37° C., 20 to 24 hours; unit assumed
Procedure, shortened: as §1

[4] = tested on: Streptococcus pyogenes PIU 2548; conditions: organism code NN; BHI agar, 35-37° C., 20 to 24 hours; unit assumed
Procedure, shortened: as §1

[5] = tested on: Nocardia Asteroides ATCC9970; conditions: organism code VV; BHI agar, 35-37° C., 20 to 24 hours; unit assumed
Procedure, shortened: as §1

[6] = tested on: Streptococcus Pneumonia GYR 1171; conditions: organism code YY; BHI agar, 35-37° C., 20 to 24 hours; unit assumed
Procedure, shortened: as §1

[7] = tested on: Streptococcus agalactiae CMX 508; conditions: organism code KK; BHI agar, 35-37° C., 20 to 24 hours; unit assumed
Procedure, shortened: as §1

[8] = tested on: Staphylococcus aureus ATCC 6538P; conditions: organism code AA; BHI agar, 35-37° C., 20 to 24 hours; unit assumed
Procedure, shortened: as §1

[9] = tested on: Streptococcus bovis A-5169; conditions: organism code JJ; BHI agar, 35-37° C., 20 to 24 hours; unit assumed
Procedure, shortened: as §1

[10] = tested on: Streptococcus pyogenes EES61; conditions: organism code LL; BHI agar, 35-37° C., 20 to 24 hours; unit assumed
Procedure, shortened: as §1

[11] = tested on: Haemophilis Influenzae DILL AMP R; conditions: organism code WW; BHI agar, 35-37° C., 20 to 24 hours; unit assumed
Procedure, shortened: as §1

[12] = tested on: Staphylococcus aureus NCTC10649M; conditions: organism code EE; BHI agar, 35-37° C., 20 to 24 hours; unit assumed
Procedure, shortened: as §1

[13] = tested on: Enterococcus faecium ATCC 8043; conditions: organism code II; BHI agar, 35-37° C., 20 to 24 hours; unit assumed
Procedure, shortened: as §1

Escherichia coli JUHL = conditions: organism code QQ; BHI agar, 35-37° C., 20 to 24 hours; unit assumed
Procedure, shortened: as §1

[14] = tested on: Mycobacterium smegmatis ATCC 114; conditions: organism code UU; BHI agar, 35-37° C., 20 to 24 hours; unit assumed
Procedure, shortened: as §1

[15] = tested on: Staphylococcus aureus 1775; conditions: organism code GG; BHI agar, 35-37° C., 20 to 24 hours; unit assumed
Procedure, shortened: as §1

Escherichia coli SS = conditions: organism code RR; BHI agar, 35-37° C., 20 to 24 hours; unit assumed
Procedure, shortened: as §1

[16] = tested on: Streptococcus Pneumonia 5979; conditions: organism code ZZ; BHI agar, 35-37° C., 20 to 24 hours; unit assumed
Procedure, shortened: as §1

[17] = tested on: Staphylococcus aureus A5177; conditions: organism code BB; BHI agar, 35-37° C., 20 to 24 hours; unit assumed
Procedure, shortened: as §1

[18] = tested on: Streptococcus pyogenes 930; conditions: organism code MM; BHI agar, 35-37° C., 20 to 24 hours; unit assumed
Procedure, shortened: as §1

[19] = tested on: Streptococcus Pneumonia 5649; conditions: organism code ZZA; BHI agar, 35-37° C., 20 to 24 hours; unit assumed
Procedure, shortened: as §1

Candida albicans CCH 442 = conditions: organism code TT; BHI agar, 35-37° C., 20 to 24 hours; unit assumed
Procedure, shortened: as §1

[20] = tested on: Micrococcus luteus ATCC 4698; conditions: organism code PP; BHI agar, 35-37° C., 20 to 24 hours; unit assumed
Procedure, shortened: as §2

[21] = tested on: Streptococcus Pneumonia ATCC6303; conditions: organism code XX; BHI agar, 35-37° C., 20 to 24 hours; unit assumed
Procedure, shortened: as §1

Escherichia coli DC-2 = conditions: organism code SS; BHI agar, 35-37° C., 20 to 24 hours; unit assumed
Procedure, shortened: as §1

[22] = tested on: Staphylococcus epidermidis 3519; conditions: organism code HH; BHI agar, 35-37° C., 20 to 24 hours; unit assumed
Procedure, shortened: as §1

[23] = tested on: Staphylococcus aureus A-5278; conditions: organism code CC; BHI agar, 35-37° C., 20 to 24 hours; unit assumed
Procedure, shortened: as §1

| Structure (SMILES) | MIC [1] | MIC [2] | MIC [3] | MIC [4] | MIC [5] | MIC [6] | MIC [7] | MIC [8] | MIC [9] | MIC [11] | MIC [12] | MIC [13] | MIC (Escherichia coli JUHL) | MIC [14] | MIC (Escherichia coli SS) | MIC [16] | MIC [17] | MIC [18] | MIC [19] | MIC (Candida albicans CCH 442) | also measured |
| --- | --- | --- | --- | --- | --- | --- | --- | --- | --- | --- | --- | --- | --- | --- | --- | --- | --- | --- | --- | --- | --- |
| CC[C@H]1OC(=O)[C@H](C)C(=O)[C@H](C)[C@@H](O[C@@H]2O[C@H](C)C[C@H](N(C)C)[C@H]2O)[C@](C)(OC/C=C/c2ccc(-c3ccc(Cl)c(Cl)c3)s2)C[C@@H](C)C(=O)[C@H](C)[C@H]2NC(=O)O[C@@]21C [Example 71] | 0.39 µg/mL (≈ 0.45 µM) | 0.39 µg/mL (≈ 0.45 µM) | 0.39 µg/mL (≈ 0.45 µM) | 0.39 µg/mL (≈ 0.45 µM) | 0.39 µg/mL (≈ 0.45 µM) | 0.125 µg/mL (≈ 0.144 µM) | 0.1 µg/mL (≈ 0.115 µM) | 0.39 µg/mL (≈ 0.45 µM) | 0.05 µg/mL (≈ 0.0577 µM) | 16 µg/mL (≈ 18.5 µM) | 0.39 µg/mL (≈ 0.45 µM) | 0.39 µg/mL (≈ 0.45 µM) | > 100 µg/mL | 0.39 µg/mL (≈ 0.45 µM) | 3.1 µg/mL (≈ 3.58 µM) | 4 µg/mL (≈ 4.62 µM) | 0.39 µg/mL (≈ 0.45 µM) | 3.1 µg/mL (≈ 3.58 µM) | 1 µg/mL (≈ 1.15 µM) | > 100 µg/mL | MIC [10]: 0.1 µg/mL (≈ 0.115 µM); MIC [15]: 12.5 µg/mL (≈ 14.4 µM); MIC [20]: 0.39 µg/mL (≈ 0.45 µM); MIC [21]: 0.125 µg/mL (≈ 0.144 µM); MIC (Escherichia coli DC-2): > 100 µg/mL; MIC [22]: 0.39 µg/mL (≈ 0.45 µM); MIC [23]: 12.5 µg/mL (≈ 14.4 µM) |
| CC[C@H]1OC(=O)[C@H](C)C(=O)[C@H](C)[C@@H](O[C@@H]2O[C@H](C)C[C@H](N(C)C)[C@H]2O)[C@](C)(OCC#Cc2ccc(-c3cc4ccccc4s3)s2)C[C@@H](C)C(=O)[C@H](C)[C@H]2NC(=O)O[C@@]21C [Example 34] | 0.39 µg/mL (≈ 0.458 µM) | 0.02 µg/mL (≈ 0.0235 µM) | 0.2 µg/mL (≈ 0.235 µM) | 0.39 µg/mL (≈ 0.458 µM) | 0.39 µg/mL (≈ 0.458 µM) | 0.25 µg/mL (≈ 0.294 µM) | 0.02 µg/mL (≈ 0.0235 µM) | 0.39 µg/mL (≈ 0.458 µM) | 0.02 µg/mL (≈ 0.0235 µM) | 16 µg/mL (≈ 18.8 µM) | 0.2 µg/mL (≈ 0.235 µM) | 0.2 µg/mL (≈ 0.235 µM) | > 100 µg/mL | 0.39 µg/mL (≈ 0.458 µM) | 1.56 µg/mL (≈ 1.83 µM) | 8 µg/mL (≈ 9.4 µM) | 0.2 µg/mL (≈ 0.235 µM) | 1.56 µg/mL (≈ 1.83 µM) | 2 µg/mL (≈ 2.35 µM) | > 100 µg/mL | MIC [10]: 0.02 µg/mL (≈ 0.0235 µM); MIC [15]: 12.5 µg/mL (≈ 14.7 µM); MIC [20]: 0.2 µg/mL (≈ 0.235 µM); MIC [21]: 0.25 µg/mL (≈ 0.294 µM); MIC (Escherichia coli DC-2): > 100 µg/mL; MIC [22]: 0.39 µg/mL (≈ 0.458 µM); MIC [23]: 50 µg/mL (≈ 58.7 µM) |
| CC[C@H]1OC(=O)[C@H](C)C(=O)[C@H](C)[C@@H](O[C@@H]2O[C@H](C)C[C@H](N(C)C)[C@H]2O)[C@](C)(OCC#Cc2ccc(-c3ccsc3)s2)C[C@@H](C)C(=O)[C@H](C)[C@H]2NC(=O)O[C@@]21C [Example 27] | 0.05 µg/mL (≈ 0.0624 µM) | ≤ 0.005 µg/mL | 0.05 µg/mL (≈ 0.0624 µM) | 0.1 µg/mL (≈ 0.125 µM) | 0.01 µg/mL (≈ 0.0125 µM) | 0.015 µg/mL (≈ 0.0187 µM) | ≤ 0.005 µg/mL | 0.05 µg/mL (≈ 0.0624 µM) | ≤ 0.005 µg/mL | 2 µg/mL (≈ 2.5 µM) | 0.05 µg/mL (≈ 0.0624 µM) | 0.01 µg/mL (≈ 0.0125 µM) | 100 µg/mL (≈ 125 µM) | 0.2 µg/mL (≈ 0.25 µM) | 0.2 µg/mL (≈ 0.25 µM) | 4 µg/mL (≈ 4.99 µM) | 0.05 µg/mL (≈ 0.0624 µM) | 6.2 µg/mL (≈ 7.74 µM) | 0.25 µg/mL (≈ 0.312 µM) | > 100 µg/mL | MIC [10]: ≤ 0.005 µg/mL; MIC [20]: 0.05 µg/mL (≈ 0.0624 µM); MIC [21]: 0.015 µg/mL (≈ 0.0187 µM); MIC (Escherichia coli DC-2): 100 µg/mL (≈ 125 µM); MIC [22]: 0.05 µg/mL (≈ 0.0624 µM); MIC [23]: 100 µg/mL (≈ 125 µM) |
| CC[C@H]1OC(=O)[C@H](C)C(=O)[C@H](C)[C@@H](O[C@@H]2O[C@H](C)C[C@H](N(C)C)[C@H]2O)[C@](C)(OC/C=C/c2ccc(-c3cccc(F)c3)s2)C[C@@H](C)C(=O)[C@H](C)[C@H]2NC(=O)O[C@@]21C [Example 72] | 0.2 µg/mL (≈ 0.245 µM) | 0.02 µg/mL (≈ 0.0245 µM) | 0.2 µg/mL (≈ 0.245 µM) | 0.39 µg/mL (≈ 0.479 µM) | 0.39 µg/mL (≈ 0.479 µM) | 0.125 µg/mL (≈ 0.153 µM) | 0.01 µg/mL (≈ 0.0123 µM) | 0.2 µg/mL (≈ 0.245 µM) | ≤ 0.005 µg/mL | 8 µg/mL (≈ 9.82 µM) | 0.2 µg/mL (≈ 0.245 µM) | 0.05 µg/mL (≈ 0.0613 µM) | > 100 µg/mL | 1.56 µg/mL (≈ 1.91 µM) | 1.56 µg/mL (≈ 1.91 µM) | 4 µg/mL (≈ 4.91 µM) | 0.2 µg/mL (≈ 0.245 µM) | 12.5 µg/mL (≈ 15.3 µM) | 1 µg/mL (≈ 1.23 µM) | > 100 µg/mL | MIC [15]: 25 µg/mL (≈ 30.7 µM); MIC [20]: 0.05 µg/mL (≈ 0.0613 µM); MIC [21]: 0.125 µg/mL (≈ 0.153 µM); MIC (Escherichia coli DC-2): > 100 µg/mL; MIC [22]: 0.2 µg/mL (≈ 0.245 µM); MIC [23]: 25 µg/mL (≈ 30.7 µM) |
